# Patent US5512588A, “Furylthiazoles and their use as H2 - receptor antagonists and antimicrobials” (Fujisawa Pharmaceutical Co., Ltd., priority 1991, dated 1996)
# Legend:
# [1] = tested on: Campylobacter pyloridis 8008; assay: Test C (Anti-microbial activity), agar dilution method; type: cell-based; settings: Helicobacter pylori, 72 h, Brucella agar plus 5% lysed horse blood, 37° C. for 3 days, 10% CO2, 10^4 cfu/ml
# Description: Test C (Anti-microbial activity):
# In vitro antimicrobial activity was determined by the agar dilution method. Test strain was precultured in Brucella broth Agar containing 5% horse serum at 37° C. for 3 days, and 10^4 cfu/ml were inoculated with a multipoint replicater onto Brucella agar plus 5% lysed horse blood plate containing serial 2-fold dilutions of each drug at 37° C. for 3 days. Incubation was carried out in an atmosphere of 10% CO2. MIC was read after incubation as the lowest drug concentration that inhibited macroscopic colonial growth.
# H2 -receptor = assay: Test A (H2 -receptor antagonism in isolated guinea-pig atrium); settings: inhibition of histamine (1×10^-6 g/ml)-induced increase in beating rate, test compound 1×10^-6 g/ml, 30 minutes, 30°C
# Description: Test A (H2 -receptor antagonism in isolated guinea-pig atrium):
# The atrial strip isolated from guinea-pig was suspended under an initial tension 0.3 to 0.6 g in an organ bath containing Tyrode solution at 30°C., aerated 95% O2 -5% CO2 gas. The beating rate and amplitude of contraction of the atrium were recorded by means of a transducer and a polygraph. Histamine (1×10^-6 g/ml) was added to the bathing fluid and the increase in beating rate after dosing was measured. Addition of test compounds (1×10^-6 g/ml) was made 30 minutes after washing out histamine. Inhibitory effect of test compound was calculated by comparing histamine-induced increases in beating rate before and 30 minutes after dosing with the test compounds.
# [2] = tested on: histamine-stimulated gastric secretion; assay: Test B (Gastric secretion from lumen perfused stomach in anesthetized rats); type: in vivo, Male Sprague-Dawley rats; settings: maximal inhibition of acid output, histamine 3 mg/kg/hr i.v., test compound 1 mg/kg intravenously
# Description: Test B (Gastric secretion from lumen perfused stomach in anesthetized rats):
# Male Sprague-Dawley rats weighing about 250 g were used. Rats were deprived of food but allowed free access to water for 24 hours. The animals were anesthetized with 1.25 g/kg urethane intraperitoneally. The abdomen was opened and the gastric lumen was perfured with saline throughout the experiment. The perfusate was titrated by an autotitrator with 25 mM sodium hydroxide as a titrant. Gastric secretion was stimulated by intravenous infusion with histamine (3 mg/kg/hr). After reaching plateau, test compound (1 mg/kg) was given intravenously. Drug effect was expressed as maximal inhibition by acid output.
# HCl-aspirin ulcer = assay: Test D (Inhibition of HCl-aspirin ulcer); type: in vivo, male Sprague-Dawley rats; settings: length of ulcers vs control; test compound 32 mg/kg orally 30 minutes before aspirin 200 mg/kg in 0.2N HCl; rats
# Description: Test D (Inhibition of HCl-aspirin ulcer):
# Seven male Sprague-Dawley rats, aged 6 weeks and weighing about 200 g were used per group for the study on HCl-aspirin ulcer after the fast for 24 hours. Each of the test compounds (32 mg/kg) suspended in 0.1% methylcellulose solution was administered orally 30 minutes before aspirin administration. Aspirin, suspended in 0.1% methylcellulose solution containing 0.2N HCl, was administered orally at a dose of 200 mg/kg/10 ml. One hour later, the animals were sacrificed and their stomachs were removed. The stomach was then fixed with 2% formalin. The length of ulcers was measured for each animal, and percentage of inhibition was calculated by comparing the mean length of ulcers (mm) in the test animals with that in the control animals.
Structure (SMILES),MIC [1] [µg/mL],further results
C=CCNC(N)=Nc1nc(-c2ccc(CNC(C)=O)o2)cs1 [Test Compound (e)],0.78,–
"CCCCCCNC(N)=Nc1nc(-c2ccc(CNC(C)=O)o2)cs1 [Test Compound (b), 4-(5-Acetylaminomethylfuran-2-yl)-2-(amino)(n-hexylamino)methyleneamino!thiazole]",0.1,H2 Antagonism (%) (H2 -receptor): 78.5%
"COCCNC(N)=Nc1nc(-c2ccc(CNC(C)=O)o2)cs1 [Test Compound (c), 4-(5-Acetylaminomethylfuran-2-yl)-2-(amino)-(2-methoxyethylamino)methyleneamino!thiazole]",–,Inhibition (%) [2]: 69%
"CC(=O)NCc1ccc(-c2csc(N=C(N)NCCc3ccccn3)n2)o1 [Test Compound (d), 4-(5-Acetylaminomethylfuran-2-yl)-2-(amino)-2-(2-pyridyl)ethylamino!methyleneamino!thiazole]",0.78,–
"CCCCNC(N)=Nc1nc(-c2ccc(CNC(C)=O)o2)cs1 [Test Compound (a), 4-(5-Acetylaminomethylfuran-2-yl)-2-(amino)(n-butylamino)methyleneamino!thiazole]",–,Inhibition (%) (HCl-aspirin ulcer): 86.9%
